Reference: paper PMC9319270, “Combination of Six Individual Derivatives of the Pom-1 Antibiofilm Peptide Doubles Their Efficacy against Invasive and Multi-Resistant Clinical Isolates of the Pathogenic Yeast Candida albicans” (Pharmaceutics, 2022)
Where two headings read alike, the source gives them in different places.

Tests used:
[1] = test system: invasive C. albicans clinical isolates; type: cell-based, Candida albicans; settings: 20 biofilm-forming isolates
Description: The antifungal effect of Pom-1A to Pom-1F on Candida spp. biofilm formation can be determined following the Clinical and Laboratory Standard Institute guidelines (M27-A3). For this, 2.5 × 10^3 yeast cells were incubated in 200 µL of RPMI-1640 medium supplemented with L-glutamine, fluconazole, amphotericin B, and Pom-1A to Pom-1F. Incubation was performed on flat-bottomed polystyrene microplates with 96 wells (Sarstedt AG & Co. KG, Nümbrecht, Germany) for 24 h at 37 °C without shaking. The subsequent treatment with crystal violet was originally developed by George O’Toole for bacteria and adapted to Candida biofilms. For this purpose, the planktonic phase was removed, and the wells were washed twice with 200 µL of demineralized water. The remaining biofilm cells were treated with 200 µL of 0.1% (w/v) crystal violet solution for 15 min. After removing the solution, they were washed again twice with 200 µL demineralized water, and the microtiter plates were dried for at least 24 h at 25 °C. The stain was dissolved with 200 µL of 30% acetic acid and transferred to a new plate after 15 min. The absorbance at 560 nm was measured using a Tecan Infinite F200 microplate reader (Tecan Group Ltd., Männedorf, Switzerland). The resulting data were evaluated against the untreated controls so that the efficacy of the agents could be determined.

[2] = test system: adenocarcinomic human alveolar basal epithelial cells A549; type: cell-based
Description: (§1) For the experiments, adenocarcinomic human alveolar basal epithelial cells A549 [69] and human dermal fibroblasts (HDFs) were used. Cultivation was performed in DMEM with FBS (10% (w/v), 15% (w/v)), MEM NEAAs (1% (w/v)), and penicillin–streptomycin (100 U*mL^−1, 1% (w/v)) at 37 °C in an incubator containing 5% CO2. A resazurin assay was used to detect the viability of the cells. Therefore, 2 × 10^4 cells per well of a 96-well plate were incubated in 200 µL DMEM with additives at 37 °C and 5% CO2. The medium was removed, and 100 µL of the medium and 100 µL of a peptide solution (2.5 µg/mL, 25 µg/mL) were added. After incubation for 24 h at 37 °C and 5% CO2, 20 µL of a resazurin solution (0.15 mg/mL) were added into each well, and the cells were incubated again for 24 h at 37 °C and 5% CO2. Fluorescence measurement (excitation wavelength—535 nm, emission wavelength—595 nm) of the resulting resorufin was then performed using a Tecan Infinite F200 microplate reader (Tecan Group Ltd., Männedorf, Switzerland).

[3] = test system: human dermal fibroblasts (HDFs); type: cell-based
Description: as §1

Compound: C[C@@H]1[C@H](O)[C@@H](C)/C=C/C=C/C=C/C=C/C=C/C=C/C=C/[C@H](O[C@@H]2O[C@H](C)[C@@H](O)[C@H](N)[C@@H]2O)C[C@@H]2O[C@](O)(C[C@@H](O)C[C@@H](O)[C@H](O)CC[C@@H](O)C[C@@H](O)CC(=O)O[C@H]1C)C[C@H](O)[C@H]2C(=O)O [amphotericin B]
- number of resistant isolates (biofilm detectable, inhibition lower than 100%) ([1]; amphotericin B 2 µg/mL (w/v)): six

Compound: OC(Cn1cncn1)(Cn1cncn1)c1ccc(F)cc1F [fluconazole, Fluconazole]
- number of resistant isolates (biofilm detectable, inhibition lower than 100%) ([1]; fluconazole 8 µg/mL (w/v)): four

Compound: Triton X-100
- cell viability, A549 [2]: zero
- cell viability, HDF [3]: zero
